This is an account of results in patent US7439386B2, “Therapeutic substituted cyclopentanones” (Allergan, Inc., priority 2005, dated 2008).

One data set addresses T1, EP2 receptor (Homo sapiens, UniProt P43116).
T1 construct: expressed in transfected cells; membrane fraction
Nature of the data set: Radioligand binding, EP2 receptor. Conditions: [3H]PGE2 competition, HEK-293 membranes. Here is the method: (§1) HEK-293 cells stably expressing the human or feline FP receptor, or EP1, EP2, or EP4 receptors are washed with TME buffer, scraped from the bottom of the flasks, and homogenized for 30 sec using a Brinkman PT 10/35 polytron. TME buffer is added to achieve a final 40 ml volume in the centrifuge tubes (the composition of TME is 100 mM TRIS base, 20 mM MgCl2, […]; 10N HCl is added to achieve a pH of 7.4).
(§2) The cell homogenate is centrifuged at 19000 r.p.m. for 20 min at 4° C. using a Beckman Ti-60 rotor. The resultant pellet is resuspended in TME buffer to give a final 1 mg/ml protein concentration, as determined by Biorad assay. Radioligand binding competition assays vs. [^3H—]17 phenyl PGF2α (5 nM) are performed in a 100 μl volume for 60 min. Binding reactions are started by adding plasma membrane fraction. The reaction is terminated by the addition of 4 ml ice-cold TRIS-HCl buffer and rapid filtration through glass fiber GF/B filters using a Brandel cell harvester. The filters are washed 3 times with ice-cold buffer and oven dried for one hour. Non-specific binding is determined with 10 uM unlabeled 17 phenyl PGF2α.
(§3) [^3H—] PGE2 (5 nM; specific activity 180 Ci mmol) is used as the radioligand for EP receptors. Binding studies employing EP1, EP2, EP3, EP4 are performed in duplicate in at least three separate experiments. A 200 μl assay volume is used. Incubations are for 60 min at 25° C. and are terminated by the addition of 4 ml of ice-cold 50 mM TRIS-HCl, followed by rapid filtration through Whatman GF/B filters and three additional 4 ml washes in a cell harvester (Brandel). Non-specific binding is determined with 10^−5M of unlabeled PGE2.

For the next data set, the target named is T2, hEP2/Gqs5 (Homo sapiens, UniProt P43116).
T2 construct: expressed in transfected cells
Kind of data set: FLIPR calcium signal, hEP2/Gqs5. It is filed as cell-based. The following applies: HEK-293(EBNA) cells, read-out: EP2 Ca2+ EC50. Here is the method:
(§4) HEK-293(EBNA) cells, stably expressing one type or subtype of recombinant human prostaglandin receptors (prostaglandin receptors expressed: hDP/Gqs5; hEP1; hEP2/Gqs5; hEP3A/Gqi5; hEP4/Gqs5; hFP; hIP; hTP), are cultured in 100 mm culture dishes in high-glucose DMEM medium containing 10% fetal bovine serum, 2 mM 1-glutamine, 250 μg/ml geneticin (G418) and 200 μg/ml hygromycin B as selection markers, and 100 units/ml penicillin G, 100 μg/ml streptomycin and 0.25 μg/ml amphotericin B.
(§5) Cells are seeded at a density of 5×10^4 cells per well in Biocoat® Poly-D-lysine-coated black-wall, clear-bottom 96-well plates (Becton-Dickinson) and allowed to attach overnight in an incubator at 37° C. Cells are then washed two times with HBSS-HEPES buffer (Hanks Balanced Salt Solution without bicarbonate and phenol red, 20 mM HEPES, pH 7.4) using a Denley Cellwash plate washer (Labsystems). After 45 minutes of dye-loading in the dark, using the calcium-sensitive dye Fluo-4 AM at a final concentration of 2 μM, plates are washed four times with HBSS-HEPES buffer to remove excess dye leaving 100 μl in each well. Plates are re-equilibrated to 37° C. for a few minutes.
(§6) Cells are excited with an Argon laser at 488 nm, and emission is measured through a 510-570 nm bandwidth emission filter (FLIPR™, Molecular Devices, Sunnyvale, Calif.). Drug solution is added in a 50 μl volume to each well to give the desired final concentration. The peak increase in fluorescence intensity is recorded for each well. On each plate, four wells each serve as negative (HBSS-HEPES buffer) and positive controls (standard agonists: BW245C (hDP); PGE2 (hEP1; hEP2/Gqs5; hEP3A/Gqi5; hEP4/Gqs5); PGF2α (hFP); carbacyclin ([…]); U-46619 (hTP), depending on receptor). The peak fluorescence change in each drug-containing well is then expressed relative to the controls.
(§7) Compounds are tested in a high-throughput (HTS) or concentration-response (CoRe) format. […]

In another data set the target is T3, EP4 receptor (Homo sapiens, UniProt P35408).
T3 construct: expressed in transfected cells; membrane fraction
Nature of the data set: Radioligand binding, EP4 receptor. The following applies: [3H]PGE2 competition, HEK-293 membranes. Here is the method:
as §1, §2, §3

The target in the next data set is T4, hEP4/Gqs5 (Homo sapiens, UniProt P35408).
T4 construct: expressed in transfected cells
Nature of the data set: FLIPR calcium signal, hEP4/Gqs5. Conditions: HEK-293(EBNA) cells, read-out: EP4 Ca2+ EC50. It is filed as cell-based. The method, then: as §4, §5, §6
Compounds are tested in a high-throughput (HTS) or concentration-response (CoRe) format. In the HTS format, forty-four compounds per plate are examined in duplicates at a concentration of 10^−5 M. To generate concentration-response curves, four compounds per plate are tested in duplicates in a concentration range between 10^−5 and 10^−11 M. The duplicate values are averaged. In either, HTS or CoRe format each compound is tested on at least 3 separate plates using cells from different passages to give an n≧3.

In the next data set the target is T5, hEP3A/Gqi5 (Homo sapiens, UniProt P43115).
T5 construct: expressed in transfected cells
T5 sequence (P43115 1-390): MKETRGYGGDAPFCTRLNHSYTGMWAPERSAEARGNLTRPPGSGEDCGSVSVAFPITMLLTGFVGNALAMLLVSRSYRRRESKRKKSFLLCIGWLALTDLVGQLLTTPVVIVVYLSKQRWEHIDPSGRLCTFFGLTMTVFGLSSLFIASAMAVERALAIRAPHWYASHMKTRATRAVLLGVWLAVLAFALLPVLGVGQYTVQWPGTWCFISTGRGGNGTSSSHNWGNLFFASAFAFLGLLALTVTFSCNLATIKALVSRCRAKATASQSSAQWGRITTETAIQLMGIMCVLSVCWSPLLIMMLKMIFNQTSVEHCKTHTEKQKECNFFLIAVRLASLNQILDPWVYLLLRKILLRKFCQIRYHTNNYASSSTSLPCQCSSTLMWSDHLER
Kind of data set: FLIPR calcium signal, hEP3A/Gqi5. It is filed as cell-based. The following applies: HEK-293(EBNA) cells, read-out: OTHER RECEPTORS Ca2+ EC50: EP3. The method, then: as §4, §5, §6, §7

The subject of data set [1] is Beagle dogs. Kind of data set: Intraocular pressure in dogs (pneumatonometry). It is filed as in vivo. The following applies: 0.005% topical 25 μL drop, 5 day study. The method, then: (§8) Intraocular pressure studies in dogs involved pneumatonometry performed in conscious, Beagle dogs of both sexes (10-15 kg). The animals remained conscious throughout the study and were gently restrained by hand. Drugs were administered topically to one eye as a 25 μL volume drop, the other eye received 25 μL vehicle (0.1% polysorbate 80:10 mM TRIS) as a control. Proparacaine (0.1%) was used for corneal anesthesia during tonometry. Intraocular pressure was determined just before drug administration and at 2, 4 and 6 hr thereafter on each day of the 5 day study. Drug was administered immediately after the first IOP reading.

Data set [2] deals with Beagle dogs. Nature of the data set: Ocular surface hyperemia in dogs. Type of data set: in vivo. Conditions: 0.005% topical, score 0.5 trace, 1 mild, 2 moderate, 3 severe. Here is the method:
as §8
(§9) Ocular surface hyperemia was visually assessed and scored according to a system typically used clinically.
(§10) Ocular surface hyperemia was evaluated at the same time points as intraocular pressure measurement. It should be noted that untreated dog eyes frequently have a pink/red tone. Thus, values of trace or even mild are not necessarily out of the normal range. A similar procedure was used to determine rabbit hyperemia.

A further data set deals with cynomolgus monkeys. Nature of the data set: Intraocular pressure in cynomolgus monkeys. Type of data set: in vivo. The following applies: 0.005% topical, single dose. The method, then: as §8
An analogous procedure was carried out with cynomolgus monkeys with measurements at 2, 4, 6, and 24 hours after a single dose.

For the next data set, the system named is rabbit. Kind of data set: Ocular surface hyperemia in rabbits. It is filed as in vivo. Conditions: 0.005%, score 0.5 trace, 1 mild, 2 moderate, 3 severe. The method, then:
as §9, §10

Some results are limits rather than exact numbers.

T1 sequence (P43116 whole entry): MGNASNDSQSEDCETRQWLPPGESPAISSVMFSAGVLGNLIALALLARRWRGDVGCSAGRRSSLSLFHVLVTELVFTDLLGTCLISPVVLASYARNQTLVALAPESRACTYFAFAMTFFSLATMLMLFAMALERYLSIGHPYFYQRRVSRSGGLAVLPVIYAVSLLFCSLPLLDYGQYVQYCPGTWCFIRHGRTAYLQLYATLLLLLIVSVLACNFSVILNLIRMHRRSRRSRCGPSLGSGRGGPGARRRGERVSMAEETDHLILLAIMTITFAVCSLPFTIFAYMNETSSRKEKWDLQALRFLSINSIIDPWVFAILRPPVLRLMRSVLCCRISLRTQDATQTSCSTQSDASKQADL
T2 sequence (P43116 whole entry): as above
T4 sequence (P35408 whole entry): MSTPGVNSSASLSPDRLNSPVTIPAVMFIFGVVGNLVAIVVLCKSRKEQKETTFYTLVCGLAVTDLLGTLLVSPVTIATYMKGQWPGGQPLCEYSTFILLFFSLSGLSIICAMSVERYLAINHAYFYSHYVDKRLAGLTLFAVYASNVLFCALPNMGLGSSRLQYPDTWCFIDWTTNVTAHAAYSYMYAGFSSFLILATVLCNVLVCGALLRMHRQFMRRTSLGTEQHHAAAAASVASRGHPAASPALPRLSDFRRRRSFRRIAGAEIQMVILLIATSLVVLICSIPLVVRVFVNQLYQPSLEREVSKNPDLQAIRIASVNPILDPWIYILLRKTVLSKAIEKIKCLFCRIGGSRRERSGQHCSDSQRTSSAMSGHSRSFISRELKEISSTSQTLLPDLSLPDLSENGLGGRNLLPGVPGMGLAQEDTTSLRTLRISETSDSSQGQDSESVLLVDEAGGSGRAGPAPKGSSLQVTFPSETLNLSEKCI
T3 sequence (P35408 whole entry): as above

For the compound `CC1(C)C(=O)[C@H](C/C=C\CCCC(=O)O)[C@@H](/C=C/C(O)CCc2ccc3ccccc3c2)[C@@H]1O` (single isomer, unassigned) [drawing 24], the Ki (in general, a dissociation constant, usually derived from enzyme kinetics or from competition with a known ligand) was determined as 16900 nM on EP2 receptor and 111 nM on EP4 receptor. The 50% effective concentration (EC50) (in general, the concentration giving half of the maximal effect) was over 10000 nM at hEP2/Gqs5, 1.3 nM on hEP4/Gqs5 and 1020 nM at hEP3A/Gqi5.

On to `CC1(C)C(=O)[C@H](C/C=C\CCCC(=O)O)[C@@H](/C=C/C(O)CCc2ccc3ccccc3c2)[C@@H]1O` (stereo partly drawn), for which the “Dog Max ΔIOP” value in the data set on Beagle dogs [1] stood at 2 mm Hg. Besides, the “Dog Max Hyperemia” value with Beagle dogs [2] amounted to 1.3. In addition, the “Monkey Max ΔIOP” value with cynomolgus monkeys is given as 8 mm Hg. Besides, the “Rabbit Max Hyperemia” value in the data set on rabbit was determined as 0.1.

Regarding `CC1(C)C(=O)[C@H](CC#CCCCC(=O)O)[C@@H](/C=C/C(O)CCc2ccc3ccccc3c2)[C@@H]1O` (single isomer, unassigned) [drawing 25], the Ki came to 36200 nM at EP2 receptor and 1240 nM at EP4 receptor. Further, the concentration giving a half-maximal response (EC50) on hEP4/Gqs5 was determined as 16.3 nM; on hEP3A/Gqi5, 1020 nM.

Turning to `CC1(C)C(=O)[C@H](C/C=C\CCCC(=O)O)[C@@H](/C=C/C(O)CCc2ccc3ccccc3c2)[C@@H]1O` (single isomer, unassigned) [drawing 23], the inhibitory constant (Ki) on EP2 receptor is over 10000 nM; at EP4 receptor, 14 nM. The results for the half-maximal effective concentration (EC50) at hEP2/Gqs5, on hEP4/Gqs5 and on hEP3A/Gqi5 were over 10000 nM, 0.17 nM and 4020 nM, respectively.

For `CC1(C)C(=O)[C@H](CC#CCCCC(=O)O)[C@@H](/C=C/C(O)CCc2ccc3ccccc3c2)[C@@H]1O` (single isomer, unassigned) [drawing 26], the values for the EC50 on hEP2/Gqs5 and at hEP4/Gqs5 were over 10000 nM and 8 nM, respectively. Further, at EP4 receptor, the affinity corresponds to a Ki of 1860 nM.
